# In ChEMBL document CHEMBL5543144, “Discovery of a Novel Potent Tetrazole Antifungal Candidate with High Selectivity and Broad Spectrum” (J Med Chem, 2024):
# Assays:
# Format in all cases: functional
# [1] = tested on: Nakaseomyces glabratus; assay: Antifungal activity against Candida glabrata 537 assessed as inhibition of fungal growth incubated for 48 hrs by CLSI protocol based microbroth dilution method
# [2] = tested on: Candida parapsilosis; assay: Antifungal activity against Candida parapsilosis 22019 assessed as inhibition of fungal growth incubated for 24 hrs by CLSI protocol based microbroth dilution method; conditions: Lodderomyces parapsilosis
# [3] = tested on: Aspergillus fumigatus; assay: Antifungal activity against Aspergillus fumigatus 7544 assessed as inhibition of fungal growth incubated for 48 hrs by CLSI protocol based microbroth dilution method
# [4] = tested on: Cryptococcus neoformans; assay: Antifungal activity against Cryptococcus neoformans H99 assessed as inhibition of fungal growth incubated for 72 hrs by CLSI protocol based microbroth dilution method
# [5] = tested on: Pichia kudriavzevii; assay: Antifungal activity against Candida krusei 4946 assessed as inhibition of fungal growth incubated for 24 hrs by CLSI protocol based microbroth dilution method
# [6] = tested on: Candida tropicalis; assay: Antifungal activity against Candida tropicalis 2718 assessed as inhibition of fungal growth incubated for 24 hrs by CLSI protocol based microbroth dilution method
# [7] = tested on: Candida albicans; assay: Antifungal activity against Candida albicans SC5314 assessed as inhibition of fungal growth incubated for 24 hrs by CLSI protocol based microbroth dilution method
SMILES,MIC50 [1],MIC50 [2],MIC50 [3],MIC50 [4],MIC50 [5],MIC50 [6],MIC50 [7]
C[C@@H](n1ncc2ccccc2c1=O)[C@](O)(Cn1cncn1)c1ccc(F)cc1F,0.031 µg/mL,0.063 µg/mL,4 µg/mL,0.063 µg/mL,1 µg/mL,0.063 µg/mL,0.008 µg/mL
C[C@@H](n1ncc2cc(Br)ccc2c1=O)[C@](O)(Cn1cncn1)c1ccc(F)cc1F,0.016 µg/mL,< 0.008 µg/mL,1 µg/mL,< 0.008 µg/mL,0.063 µg/mL,< 0.008 µg/mL,< 0.008 µg/mL
C[C@@H](n1cnc2cc(OC(F)(F)F)ccc2c1=O)[C@](O)(Cn1cnnn1)c1ccc(F)cc1F,< 0.008 µg/mL,0.25 µg/mL,32 µg/mL,0.125 µg/mL,> 4 µg/mL,0.031 µg/mL,< 0.008 µg/mL
C[C@@H](n1ccc2cc(F)ccc2c1=O)[C@](O)(Cn1cncn1)c1ccc(F)cc1F,0.016 µg/mL,< 0.008 µg/mL,0.25 µg/mL,< 0.008 µg/mL,0.016 µg/mL,< 0.008 µg/mL,< 0.008 µg/mL
C[C@@H](n1ccc2cc(Cl)ccc2c1=O)[C@](O)(Cn1cncn1)c1cc(F)ccc1F,< 0.008 µg/mL,< 0.008 µg/mL,0.25 µg/mL,< 0.008 µg/mL,0.063 µg/mL,< 0.008 µg/mL,< 0.008 µg/mL
C[C@@H](n1ncc2cn(-c3ccc(F)c(F)c3)nc2c1=O)[C@](O)(Cn1cncn1)c1ccc(F)cc1F,1 µg/mL,1 µg/mL,> 64 µg/mL,> 64 µg/mL,> 64 µg/mL,0.25 µg/mL,0.5 µg/mL
C[C@@H](n1ccc2cc(OC(F)(F)F)ccc2c1=O)[C@](O)(Cn1cncn1)c1ccc(F)cc1F,< 0.008 µg/mL,< 0.008 µg/mL,1 µg/mL,< 0.008 µg/mL,0.063 µg/mL,< 0.008 µg/mL,< 0.008 µg/mL
COc1ccc2c(=O)n([C@H](C)[C@](O)(Cn3cncn3)c3ccc(F)cc3F)ccc2c1,< 0.008 µg/mL,< 0.008 µg/mL,1 µg/mL,< 0.008 µg/mL,0.125 µg/mL,< 0.008 µg/mL,< 0.008 µg/mL
C[C@@H](n1ccc2ccccc2c1=O)[C@](O)(Cn1cncn1)c1ccc(F)cc1F,0.016 µg/mL,0.016 µg/mL,0.5 µg/mL,0.016 µg/mL,0.125 µg/mL,0.016 µg/mL,< 0.008 µg/mL
C[C@@H](n1ccc2cc(C(F)(F)F)ccc2c1=O)[C@](O)(Cn1cncn1)c1ccc(F)cc1F,< 0.008 µg/mL,< 0.008 µg/mL,0.5 µg/mL,< 0.008 µg/mL,0.063 µg/mL,< 0.008 µg/mL,< 0.008 µg/mL
C[C@@H](n1ncc2cn(-c3ccc(Cl)c(Cl)c3)nc2c1=O)[C@](O)(Cn1cncn1)c1ccc(F)cc1F,0.5 µg/mL,0.25 µg/mL,> 64 µg/mL,> 64 µg/mL,> 64 µg/mL,0.25 µg/mL,0.125 µg/mL
C[C@@H](n1ncc2cn(-c3ccc(F)cc3)nc2c1=O)[C@](O)(Cn1cncn1)c1ccc(F)cc1F,4 µg/mL,2 µg/mL,> 64 µg/mL,2 µg/mL,8 µg/mL,1 µg/mL,0.25 µg/mL
C[C@@H](n1ccc2cc(F)ccc2c1=O)[C@](O)(Cn1cnnn1)c1ccc(F)cc1F,0.063 µg/mL,0.063 µg/mL,4 µg/mL,0.016 µg/mL,1 µg/mL,< 0.008 µg/mL,< 0.008 µg/mL
C[C@@H](n1ccc2cc(Br)ccc2c1=O)[C@](O)(Cn1cncn1)c1ccc(F)cc1F,< 0.008 µg/mL,< 0.008 µg/mL,1 µg/mL,< 0.008 µg/mL,0.063 µg/mL,< 0.008 µg/mL,< 0.008 µg/mL
Cc1ccc2c(=O)n([C@H](C)[C@](O)(Cn3cncn3)c3ccc(F)cc3F)ccc2c1,< 0.008 µg/mL,< 0.008 µg/mL,0.5 µg/mL,< 0.008 µg/mL,0.125 µg/mL,< 0.008 µg/mL,< 0.008 µg/mL
C[C@@H](n1cnc2cc(F)ccc2c1=O)[C@](O)(Cn1cnnn1)c1ccc(F)cc1F,0.25 µg/mL,0.5 µg/mL,16 µg/mL,4 µg/mL,> 4 µg/mL,0.25 µg/mL,< 0.008 µg/mL
C[C@@H](n1ncc2cn(-c3ccc(OC(F)(F)F)cc3)nc2c1=O)[C@](O)(Cn1cncn1)c1ccc(F)cc1F,1 µg/mL,0.5 µg/mL,> 64 µg/mL,> 64 µg/mL,> 64 µg/mL,0.5 µg/mL,0.5 µg/mL
C[C@@H](n1ncc2cn(-c3ccc(F)c(Cl)c3)nc2c1=O)[C@](O)(Cn1cncn1)c1ccc(F)cc1F,8 µg/mL,2 µg/mL,> 64 µg/mL,> 64 µg/mL,> 64 µg/mL,0.5 µg/mL,0.5 µg/mL

# The next lines start with the values.
MIC50 [1],MIC50 [2],MIC50 [3],MIC50 [4],MIC50 [5],MIC50 [6],MIC50 [7],SMILES
1 µg/mL,1 µg/mL,> 64 µg/mL,4 µg/mL,> 64 µg/mL,1 µg/mL,0.5 µg/mL,C[C@@H](n1ncc2cn(-c3ccc(Cl)cc3)nc2c1=O)[C@](O)(Cn1cncn1)c1ccc(F)cc1F
< 0.008 µg/mL,< 0.008 µg/mL,0.25 µg/mL,< 0.008 µg/mL,0.125 µg/mL,< 0.008 µg/mL,< 0.008 µg/mL,C[C@@H](n1ccc2cc(F)ccc2c1=O)[C@](O)(Cn1cncn1)c1cc(F)ccc1F
0.063 µg/mL,0.063 µg/mL,8 µg/mL,0.5 µg/mL,1 µg/mL,0.016 µg/mL,< 0.008 µg/mL,C[C@@H](n1ccc2cc(-c3ccccc3)ccc2c1=O)[C@](O)(Cn1cncn1)c1ccc(F)cc1F
< 0.008 µg/mL,< 0.008 µg/mL,0.25 µg/mL,< 0.008 µg/mL,0.125 µg/mL,< 0.008 µg/mL,< 0.008 µg/mL,C[C@@H](n1ncc2cc(Cl)ccc2c1=O)[C@](O)(Cn1cncn1)c1cc(F)ccc1F
1 µg/mL,1 µg/mL,> 64 µg/mL,> 64 µg/mL,> 64 µg/mL,0.5 µg/mL,0.5 µg/mL,C[C@@H](n1ncc2cn(-c3ccccc3)nc2c1=O)[C@](O)(Cn1cncn1)c1ccc(F)cc1F
0.5 µg/mL,0.5 µg/mL,> 64 µg/mL,1 µg/mL,16 µg/mL,0.5 µg/mL,0.25 µg/mL,C[C@@H](n1ncc2cn(-c3ccc(C(F)(F)F)cc3)nc2c1=O)[C@](O)(Cn1cncn1)c1ccc(F)cc1F
0.5 µg/mL,1 µg/mL,> 64 µg/mL,8 µg/mL,> 64 µg/mL,1 µg/mL,0.5 µg/mL,C[C@@H](n1ncc2cn(-c3ccc(C#N)cc3)nc2c1=O)[C@](O)(Cn1cncn1)c1ccc(F)cc1F
< 0.008 µg/mL,0.125 µg/mL,16 µg/mL,4 µg/mL,> 4 µg/mL,< 0.008 µg/mL,< 0.008 µg/mL,C[C@@H](n1cnc2cc(C(F)(F)F)ccc2c1=O)[C@](O)(Cn1cnnn1)c1ccc(F)cc1F
